{"source": "paper PMC8151276", "about": "“An Integrated Approach toward NanoBRET Tracers for Analysis of GPCR Ligand Engagement” (Molecules, 2021)", "assay_type_in_all_cases": "binding", "key": {"GNRHR": {"molecular_target": "T1, GNRHR (Homo sapiens, UniProt P30968)", "T1 construct": "purchased Promega (in-house HiBiT-GPCR construct library, NanoBRET)", "T1 sequence (P30968 1-328)": "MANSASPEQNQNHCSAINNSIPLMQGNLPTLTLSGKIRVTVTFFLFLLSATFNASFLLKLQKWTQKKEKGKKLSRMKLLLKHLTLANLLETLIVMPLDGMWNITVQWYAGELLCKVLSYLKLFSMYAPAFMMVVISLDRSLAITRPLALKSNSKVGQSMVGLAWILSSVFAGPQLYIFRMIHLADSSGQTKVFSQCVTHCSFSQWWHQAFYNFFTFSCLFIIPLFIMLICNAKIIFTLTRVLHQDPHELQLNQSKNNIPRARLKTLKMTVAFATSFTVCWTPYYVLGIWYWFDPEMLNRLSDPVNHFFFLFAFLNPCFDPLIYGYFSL", "assay": "NanoBRET screen HiBiT-GNRHR in HEK293", "conditions": "GNRHR", "method": "(§1) Each tracer candidate was screened across the entire library of HiBiT-GPCR constructs using NanoBRET as the detection modality. As depicted in Figure 4A, the specificity of interactions was evaluated through decrease in BRET due to competitive displacement of a bound tracer by excess parental compound. Each tracer was analyzed for binding to each HiBiT-GPCR fusion in the absence and in the presence of competing parental compound. Briefly, HEK293 cells were transfected with HiBiT-GPCR constructs diluted into promoterless DNA to reduce expression and maximize translocation to the cell surface. Each tracer candidate was then screened at concentrations of 1 μM and 0.1 μM across cells expressing these fusions. Cells were treated for 1.5 h with tracer either alone or in the presence of 20 μM competing parental compound (i.e., control). BRET was measured upon addition of purified LgBiT and subsequent complementation with HiBiT genetically fused to a GPCR. The specificity of interactions was assessed through a decrease in BRET signal due to competitive displacement of the bound tracer. To further gauge the robustness of these interactions, the fold response over the control (i.e., BRETtracer/BRETcontrol) was calculated. We chose a 1.5-fold response, which translates to ≥7-fold signal over noise as the minimal threshold required to score an interaction as positive. […]. Below we highlight the screening results obtained for our exemplary fluorescent tracers based on Clozapine, Amitriptyline and AZD1283.\n(§2) HiBiT-GPCR DNA constructs were diluted in 10 mM Tris pH 8 to a final concentration of 0.01 μg/μL, arrayed in 96-well plates and stored at −20 °C. For transfection, HEK293 cells were suspended in Opti-MEM (without phenol red) supplemented with 2% fetal bovine serum (Seradigm) and 100 units/mL penicillin–streptomycin (Gibco) at a final concentration of 220,000 cells/mL and dispensed into white 96-well plates at 90 μL/well. Subsequent transfections and screens were carried using an Agilent Bravo Automated Liquid Handling Platform. First, the 96-well HiBiT DNA arrays were diluted 25-fold in Opti-MEM (without serum or phenol red) to a final concentration of 0.0004 μg/μL and 20 μL of the diluted DNAs were transferred into new 96-well plates. Next, promoterless carrier DNA (1 μg/μL) was diluted 25-fold (0.04 μg/μL) and then dispensed into the diluted arrays at 20 μL/well. Following brief mixing, Viafect transfection reagent (Promega) diluted 16-fold into Opti-MEM was dispensed into the plates at 40 μL/well. After mixing by pipetting, plates were incubated for 10 min on the pipetting station deck. The DNA-transfection reagent complexes were then added to plates containing cells. To facilitate the screen, 10 μL of DNA-transfection reagent complexes were added in duplicates to the top 4 and bottom 4 rows, resulting in two identical 48-well arrays per plate. Plates with transfected cells were incubated for 18–20 h at 37 °C/5% CO2. A screen of each tracer across the entire library using two different concentrations requires duplicate plates of transfected cells. Depending on the number of tracers being screened, transfections can be scaled up using the same ratios. The next day, for each tracer, four 20× screening solutions in tracer dilution buffer (Promega) were prepared: two duplicates at final concentration of 20 μM and two duplicates at a final concentration of 2 μM. A competing unmodified compound was added to one of each duplicate at a final concentration of 400 μM. The four resulting solutions were diluted 4-fold in Opti-MEM without serum or phenol red to generate 5× solutions (5 µM and 0.5 µM tracer +/− 100 μM competing compound). To screen the library, a BioTek MultiFlo FX liquid dispenser was used to dispense 22.5 µL of tracer solution to the top 4 rows and 22.5 µL tracer + competing compound solution to the 4 bottom rows. Plates were briefly mixed on an orbital shaker and incubated for 1.5 h at room temperature. […]"}, "HTR4": {"molecular_target": "T2, HTR4 (Homo sapiens, UniProt Q13639)", "T2 construct": "purchased Promega (in-house HiBiT-GPCR construct library, NanoBRET)", "T2 sequence (Q13639 whole entry)": "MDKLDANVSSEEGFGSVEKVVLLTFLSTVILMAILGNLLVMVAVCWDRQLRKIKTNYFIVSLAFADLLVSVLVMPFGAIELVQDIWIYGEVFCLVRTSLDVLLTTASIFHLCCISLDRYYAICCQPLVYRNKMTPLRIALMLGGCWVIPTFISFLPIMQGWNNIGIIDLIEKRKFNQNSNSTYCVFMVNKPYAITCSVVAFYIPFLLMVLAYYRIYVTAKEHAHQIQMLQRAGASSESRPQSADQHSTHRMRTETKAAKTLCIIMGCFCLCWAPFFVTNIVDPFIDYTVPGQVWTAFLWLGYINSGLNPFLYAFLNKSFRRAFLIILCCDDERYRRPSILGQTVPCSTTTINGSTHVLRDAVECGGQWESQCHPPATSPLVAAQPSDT", "assay": "NanoBRET screen HiBiT-HTR4 in HEK293", "conditions": "HTR4", "method": "as §1, §2"}, "AVPR2": {"molecular_target": "T3, AVPR2 (Homo sapiens, UniProt P30518)", "T3 construct": "purchased Promega (in-house HiBiT-GPCR construct library, NanoBRET)", "T3 sequence (P30518 whole entry)": "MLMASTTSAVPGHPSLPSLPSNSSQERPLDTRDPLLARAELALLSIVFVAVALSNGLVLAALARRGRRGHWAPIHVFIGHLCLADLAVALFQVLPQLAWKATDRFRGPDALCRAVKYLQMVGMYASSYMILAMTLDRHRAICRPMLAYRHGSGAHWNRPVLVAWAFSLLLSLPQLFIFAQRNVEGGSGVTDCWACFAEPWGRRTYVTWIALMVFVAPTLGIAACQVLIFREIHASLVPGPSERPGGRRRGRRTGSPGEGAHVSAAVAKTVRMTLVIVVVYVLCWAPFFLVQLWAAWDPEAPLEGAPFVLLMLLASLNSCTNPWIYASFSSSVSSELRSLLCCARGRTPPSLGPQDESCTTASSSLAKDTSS", "assay": "NanoBRET screen HiBiT-AVPR2 in HEK293", "conditions": "AVPR2", "method": "as §1, §2"}, "NMUR1": {"molecular_target": "T4, NMUR1 (Homo sapiens, UniProt Q9HB89)", "T4 construct": "purchased Promega (in-house HiBiT-GPCR construct library, NanoBRET)", "T4 sequence (Q9HB89 1-426)": "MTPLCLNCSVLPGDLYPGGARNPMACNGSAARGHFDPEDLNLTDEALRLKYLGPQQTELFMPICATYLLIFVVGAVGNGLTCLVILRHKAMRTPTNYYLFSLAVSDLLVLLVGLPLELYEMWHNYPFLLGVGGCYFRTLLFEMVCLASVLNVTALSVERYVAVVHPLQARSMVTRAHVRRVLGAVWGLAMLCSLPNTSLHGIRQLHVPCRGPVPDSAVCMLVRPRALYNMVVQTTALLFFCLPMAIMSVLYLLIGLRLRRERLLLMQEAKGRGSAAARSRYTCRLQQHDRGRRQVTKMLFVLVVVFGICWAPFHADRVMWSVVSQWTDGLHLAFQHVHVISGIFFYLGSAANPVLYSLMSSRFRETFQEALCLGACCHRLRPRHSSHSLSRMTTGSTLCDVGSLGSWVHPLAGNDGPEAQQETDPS", "assay": "NanoBRET screen HiBiT-NMUR1 in HEK293", "conditions": "NMUR1", "method": "as §1, §2"}, "GABBR1": {"molecular_target": "T5, GABBR1 (Homo sapiens, UniProt Q9UBS5)", "T5 construct": "purchased Promega (in-house HiBiT-GPCR construct library, NanoBRET)", "T5 sequence (Q9UBS5 15-961 limits assumed)": "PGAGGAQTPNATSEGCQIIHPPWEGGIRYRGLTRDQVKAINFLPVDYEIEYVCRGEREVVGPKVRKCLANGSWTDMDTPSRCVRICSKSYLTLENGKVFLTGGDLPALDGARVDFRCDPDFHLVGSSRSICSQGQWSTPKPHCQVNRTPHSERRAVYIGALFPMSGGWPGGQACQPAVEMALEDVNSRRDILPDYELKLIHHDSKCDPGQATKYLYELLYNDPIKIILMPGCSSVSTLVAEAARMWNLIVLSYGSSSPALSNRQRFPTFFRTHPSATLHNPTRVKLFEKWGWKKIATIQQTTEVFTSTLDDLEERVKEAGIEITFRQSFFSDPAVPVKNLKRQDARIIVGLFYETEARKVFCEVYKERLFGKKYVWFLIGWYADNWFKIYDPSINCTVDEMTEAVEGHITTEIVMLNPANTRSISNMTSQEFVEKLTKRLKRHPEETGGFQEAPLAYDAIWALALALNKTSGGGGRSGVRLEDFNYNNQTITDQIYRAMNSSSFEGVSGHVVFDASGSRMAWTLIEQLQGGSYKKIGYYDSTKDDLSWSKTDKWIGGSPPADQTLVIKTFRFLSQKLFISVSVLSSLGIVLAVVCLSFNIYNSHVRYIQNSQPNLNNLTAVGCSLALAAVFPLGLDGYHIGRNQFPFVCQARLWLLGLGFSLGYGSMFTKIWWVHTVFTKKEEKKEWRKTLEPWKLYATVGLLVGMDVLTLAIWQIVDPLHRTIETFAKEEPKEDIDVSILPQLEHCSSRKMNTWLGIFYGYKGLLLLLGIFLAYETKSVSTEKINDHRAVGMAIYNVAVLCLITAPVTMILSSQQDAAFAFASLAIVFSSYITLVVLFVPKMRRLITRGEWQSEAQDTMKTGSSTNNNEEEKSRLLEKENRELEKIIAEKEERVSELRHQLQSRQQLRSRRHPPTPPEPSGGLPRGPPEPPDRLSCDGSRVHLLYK", "assay": "NanoBRET screen HiBiT-GABBR1 in HEK293", "conditions": "GABBR1", "method": "as §1, §2"}}, "data": [{"compound": "CN1CCN(C2=Nc3cc(Cl)ccc3Nc3ccc(CNC(=O)CCOCCOCCOCCOCCNC(=O)CCc4ccc5n4[B-](F)(F)[N+]4=C(c6ccc[nH]6)C=CC4=C5)cc32)CC1", "note": "[Clozapine-b-2-NB590]", "values": [{"measurement": "NanoBRET Fold Response", "setting": "GNRHR; 0.1μM tracer", "result": 1.06}, {"measurement": "NanoBRET Fold Response", "setting": "GNRHR; 1μM tracer", "result": 1.02}, {"measurement": "NanoBRET Fold Response", "setting": "HTR4; 0.1μM tracer", "result": 0.98}, {"measurement": "NanoBRET Fold Response", "setting": "HTR4; 1μM tracer", "result": 0.99}, {"measurement": "NanoBRET Fold Response", "setting": "AVPR2; 0.1μM tracer", "result": 1.05}, {"measurement": "NanoBRET Fold Response", "setting": "AVPR2; 1μM tracer", "result": 0.95}, {"measurement": "NanoBRET Fold Response", "setting": "NMUR1; 0.1μM tracer", "result": 0.98}, {"measurement": "NanoBRET Fold Response", "setting": "NMUR1; 1μM tracer", "result": 0.94}, {"measurement": "NanoBRET Fold Response", "setting": "GABBR1; 0.1μM tracer", "result": 0.93}, {"measurement": "NanoBRET Fold Response", "setting": "GABBR1; 1μM tracer", "result": 1.38}]}]}
